Our source for the IC50 values is patent US12286443B2, “Bycyclic JAK inhibitors and uses thereof” (Insilico Medicine IP Limited, priority 2019, dated 2025).

Read-outs that look alike come from different tables or passages of the source.

In assay [1] the target is T1, JAK2 (Homo sapiens, UniProt O60674).
T1 construct: purchased Invitrogen PV4210
The assay can be described thus: Inhibition of JAK2 kinase, LANCE Ultra TR-FRET assay. It is filed as biochemical. Particulars: 2x ATP 24 μM, 15 min pre-incubation, 90 min reaction, 23° C. As to the method: (§1) Exemplary compounds were assayed to determine potency in inhibiting activity of JAK1-3 and TYK2 kinases by determining IC50 values.
(§2) The sources of test materials and equipment are as follows: JAK1 (Invitrogen, Cat. No PV4775), JAK2 (Invitrogen, Cat. No PV4210), JAK3 (Invitrogen, Cat. No PV4080), TYK2 (Invitrogen, Cat. No PR8440C), ATP (Sigma, Cat. No. A7699-1G), DMSO (Sigma, Cat. No. D2650), DTT (Sigma, Cat. No. 43815), 384 wells_compound plate (Greiner, Cat. No. 781280), 384 wells_assay plate (Perkin Elmer, Cat. No. 6007299), LANCE Ultra ULight™-JAK-1 peptide (Perkin Elmer, Cat. No. TRF0121), LANCET™ Eu-W1024 Anti-phosphotyrosine (PT66) (Perkin Elmer, Cat. No. AD0069), LANCET™ Detection Buffer(Perkin Elmer, Cat. No. CR97-100).
(§3) The concentrations of test compounds varied from 100 μM to 1.7 nM with 3-fold dilution, 11 points, in duplicates while the concentrations of the reference compound, Tofacitinib, varied from 1 μM to 0.017 nM with 3-fold dilution, 11 points, in duplicates.
(§4) The assay buffer contained 50 mM HEPES (pH 7.5), 0.01% Brij-35, 10 mM MgCl2, 1 mM EDTA, 2 mM DTT. Incubations were carried out at 23° C.
(§5) Prior to the assay, enzyme, peptide substrate and serially diluted test compounds were pre-incubated together in assay buffer (5 μL) for 15 minutes (peptide substrate concentration: 50 nM; JAK enzyme concentrations: 2 nM JAK1; […]; […] and 4 nM TYK2). And the assay was initiated by the addition of 5 μL assay buffer containing 2× final ATP concentration (these are the 2×ATP concentrations: 76 μM JAK1; 24 μM JAK2; 8 μM JAK3 and 30 μM TYK2). Following the 90-minute incubation, antibody conjugated with Eu is dissolved in detection buffer to add into wells and then incubated for 60 minutes. The 10 μL detection buffer contains EDTA to stop the enzymatic reaction. The plate is analyzed by Perkin Elmer Envision on TR-FRET mode. The high ratio of 665/615 represents no inhibition of kinase reaction while the low ratio of 665/615 represents complete inhibition of kinase reaction.
(§6) Curves are fit by XLFIT5 as inhibition rate % vs. log [compound concentration] using 4 parameters logistic model 205.
(§7) In the table, “A” indicates an IC50 of less than 100 nM, “B” indicates an IC50 range from 100 nM to 500 nM; “C” indicates an IC50 range from 500 nM to 2 μM; and “D” indicates an IC50 greater than 2 μM. Also, “na” indicates data is not available.
For orientation: TR-FRET usually uses a lanthanide donor and a delayed reading to cut background.

The target in assay [2] is T2, TYK2 (Homo sapiens, UniProt P29597).
T2 construct: purchased Invitrogen PR8440C
T2 sequence (P29597 whole entry): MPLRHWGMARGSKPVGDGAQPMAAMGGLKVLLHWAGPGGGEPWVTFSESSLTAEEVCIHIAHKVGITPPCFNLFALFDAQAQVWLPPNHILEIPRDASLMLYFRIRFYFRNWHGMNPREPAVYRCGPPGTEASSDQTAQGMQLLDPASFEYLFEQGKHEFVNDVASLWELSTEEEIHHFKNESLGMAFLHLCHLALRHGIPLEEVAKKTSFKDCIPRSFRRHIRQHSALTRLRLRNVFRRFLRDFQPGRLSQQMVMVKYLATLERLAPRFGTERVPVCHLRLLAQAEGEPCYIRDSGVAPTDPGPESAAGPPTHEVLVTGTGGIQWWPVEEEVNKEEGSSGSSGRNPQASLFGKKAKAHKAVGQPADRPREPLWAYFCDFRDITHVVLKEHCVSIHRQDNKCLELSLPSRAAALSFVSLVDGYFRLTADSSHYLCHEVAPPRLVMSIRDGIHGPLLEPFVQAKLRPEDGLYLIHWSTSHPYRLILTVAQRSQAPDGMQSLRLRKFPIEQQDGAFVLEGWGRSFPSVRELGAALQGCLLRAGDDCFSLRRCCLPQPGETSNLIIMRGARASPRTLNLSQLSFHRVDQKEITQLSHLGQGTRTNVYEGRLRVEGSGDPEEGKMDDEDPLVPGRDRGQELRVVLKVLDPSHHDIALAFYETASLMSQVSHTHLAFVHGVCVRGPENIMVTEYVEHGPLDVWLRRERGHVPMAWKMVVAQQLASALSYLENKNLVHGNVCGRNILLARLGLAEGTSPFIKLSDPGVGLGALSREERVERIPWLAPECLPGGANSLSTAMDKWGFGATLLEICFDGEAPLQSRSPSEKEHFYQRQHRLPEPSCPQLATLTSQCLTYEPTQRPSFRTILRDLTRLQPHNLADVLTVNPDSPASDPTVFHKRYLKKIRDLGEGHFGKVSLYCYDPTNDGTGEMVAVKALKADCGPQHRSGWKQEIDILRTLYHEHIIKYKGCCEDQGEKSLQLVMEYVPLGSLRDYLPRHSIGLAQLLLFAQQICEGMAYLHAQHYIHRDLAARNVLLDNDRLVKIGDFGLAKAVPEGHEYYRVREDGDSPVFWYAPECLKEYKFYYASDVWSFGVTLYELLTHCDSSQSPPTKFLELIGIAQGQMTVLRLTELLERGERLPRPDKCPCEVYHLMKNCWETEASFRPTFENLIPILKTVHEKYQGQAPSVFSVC
The assay can be described thus: Inhibition of TYK2 kinase, LANCE Ultra TR-FRET assay. In kind it is biochemical. To be noted: 4 nM TYK2, 2x ATP 30 μM, 15 min pre-incubation, 90 min reaction, 23° C., read-out: tyk IC50. The procedure:
as §1, §2, §3, §4, §5, §6, §7

Assay [3] deals with T3, JAK3 (Homo sapiens, UniProt P52333).
T3 construct: purchased Invitrogen PV4080
T3 sequence (P52333 1-1124): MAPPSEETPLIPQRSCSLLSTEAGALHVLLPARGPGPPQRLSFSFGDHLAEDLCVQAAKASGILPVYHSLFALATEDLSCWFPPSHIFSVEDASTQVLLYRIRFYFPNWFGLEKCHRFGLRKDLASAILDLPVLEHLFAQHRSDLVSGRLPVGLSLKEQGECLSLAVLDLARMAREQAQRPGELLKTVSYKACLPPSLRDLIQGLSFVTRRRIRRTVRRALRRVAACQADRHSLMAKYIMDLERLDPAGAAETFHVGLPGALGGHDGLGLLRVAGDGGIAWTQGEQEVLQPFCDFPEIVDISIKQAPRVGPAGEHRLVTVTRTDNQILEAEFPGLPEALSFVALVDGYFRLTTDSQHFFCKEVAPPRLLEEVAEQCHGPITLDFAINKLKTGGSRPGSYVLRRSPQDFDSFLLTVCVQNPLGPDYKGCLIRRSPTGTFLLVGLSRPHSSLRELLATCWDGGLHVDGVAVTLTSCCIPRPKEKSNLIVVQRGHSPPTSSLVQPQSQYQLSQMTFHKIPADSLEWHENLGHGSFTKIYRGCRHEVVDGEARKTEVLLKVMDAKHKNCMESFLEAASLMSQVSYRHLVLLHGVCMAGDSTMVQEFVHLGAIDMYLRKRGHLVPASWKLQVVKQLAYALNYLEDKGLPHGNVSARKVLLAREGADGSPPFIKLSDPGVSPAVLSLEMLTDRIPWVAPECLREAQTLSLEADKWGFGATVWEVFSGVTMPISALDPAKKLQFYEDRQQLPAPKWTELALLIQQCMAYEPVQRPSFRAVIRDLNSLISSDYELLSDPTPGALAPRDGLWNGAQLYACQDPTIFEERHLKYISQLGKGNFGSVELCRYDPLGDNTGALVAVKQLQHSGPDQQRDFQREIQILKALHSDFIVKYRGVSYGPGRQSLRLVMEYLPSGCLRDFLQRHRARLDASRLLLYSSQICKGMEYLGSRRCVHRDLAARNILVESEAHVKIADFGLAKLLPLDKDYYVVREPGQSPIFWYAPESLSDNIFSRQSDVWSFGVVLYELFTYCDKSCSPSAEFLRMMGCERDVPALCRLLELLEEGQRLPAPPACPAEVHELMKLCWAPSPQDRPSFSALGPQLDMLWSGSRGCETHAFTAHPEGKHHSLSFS
Description: Inhibition of JAK3 kinase, LANCE Ultra TR-FRET assay. In kind it is biochemical. Particulars: 2x ATP 8 μM, 15 min pre-incubation, 90 min reaction, 23° C. The procedure: as §1, §2, §3, §4, §5, §6, §7

Assay [4] concerns the target T4, JAK1 (Homo sapiens, UniProt P23458).
T4 construct: purchased Invitrogen PV4775
Description: Inhibition of JAK1 kinase, LANCE Ultra TR-FRET assay. In kind it is biochemical. Particulars: 2 nM JAK1, 2x ATP 76 μM, 15 min pre-incubation, 90 min reaction, 23° C. As to the method:
as §1, §2, §3, §4, §5, §6, §7

Assay [5] deals with Hut-78 cells. Description: Inhibition in Hut-78 cells (IL-2 stimulated, HTRF). Particulars: Homo sapiens. It is filed as cell-based. The procedure: Exemplary compounds were assayed to determine potency in inhibiting Hut-78 cells by determining IC50 values.
Hut-78 cells were cultures in IMDM+20% FBS medium. Cells were maintained in log phase before the assay. Cell pellets were collected and resuspended in serum-free and phenol-free RPMI 1640 medium. 40,000 cells/well (10 μL) were seeded in each well of a 384-well plate and incubated with and without compound for 2 hours at 37° C. and 5% C02. IL-2 was added (2 μL, final concentration 100 ng/mL) and the mixture was incubated for 10 min. Cells were lysed by adding 4 μL labeled antibodies and the mixture was incubated overnight. The plate was read using the HTRF protocol on an Envision plate reader. The data was analyzed using XL-fit software (Supplier: ID business solutions Ltd.; Software version: XL fit 5.0). Inhibition %=(Max−Sample value)/(Max−Min)*100.
In the table, “A” indicates an IC50 of less than 0.5 μM, “B” indicates an IC50 range from 0.5 μM to 1 μM; and “C” indicates an IC50 range from 1 μM to 10 μM. Also, “na” indicates data is not available.

T1 sequence (O60674 whole entry): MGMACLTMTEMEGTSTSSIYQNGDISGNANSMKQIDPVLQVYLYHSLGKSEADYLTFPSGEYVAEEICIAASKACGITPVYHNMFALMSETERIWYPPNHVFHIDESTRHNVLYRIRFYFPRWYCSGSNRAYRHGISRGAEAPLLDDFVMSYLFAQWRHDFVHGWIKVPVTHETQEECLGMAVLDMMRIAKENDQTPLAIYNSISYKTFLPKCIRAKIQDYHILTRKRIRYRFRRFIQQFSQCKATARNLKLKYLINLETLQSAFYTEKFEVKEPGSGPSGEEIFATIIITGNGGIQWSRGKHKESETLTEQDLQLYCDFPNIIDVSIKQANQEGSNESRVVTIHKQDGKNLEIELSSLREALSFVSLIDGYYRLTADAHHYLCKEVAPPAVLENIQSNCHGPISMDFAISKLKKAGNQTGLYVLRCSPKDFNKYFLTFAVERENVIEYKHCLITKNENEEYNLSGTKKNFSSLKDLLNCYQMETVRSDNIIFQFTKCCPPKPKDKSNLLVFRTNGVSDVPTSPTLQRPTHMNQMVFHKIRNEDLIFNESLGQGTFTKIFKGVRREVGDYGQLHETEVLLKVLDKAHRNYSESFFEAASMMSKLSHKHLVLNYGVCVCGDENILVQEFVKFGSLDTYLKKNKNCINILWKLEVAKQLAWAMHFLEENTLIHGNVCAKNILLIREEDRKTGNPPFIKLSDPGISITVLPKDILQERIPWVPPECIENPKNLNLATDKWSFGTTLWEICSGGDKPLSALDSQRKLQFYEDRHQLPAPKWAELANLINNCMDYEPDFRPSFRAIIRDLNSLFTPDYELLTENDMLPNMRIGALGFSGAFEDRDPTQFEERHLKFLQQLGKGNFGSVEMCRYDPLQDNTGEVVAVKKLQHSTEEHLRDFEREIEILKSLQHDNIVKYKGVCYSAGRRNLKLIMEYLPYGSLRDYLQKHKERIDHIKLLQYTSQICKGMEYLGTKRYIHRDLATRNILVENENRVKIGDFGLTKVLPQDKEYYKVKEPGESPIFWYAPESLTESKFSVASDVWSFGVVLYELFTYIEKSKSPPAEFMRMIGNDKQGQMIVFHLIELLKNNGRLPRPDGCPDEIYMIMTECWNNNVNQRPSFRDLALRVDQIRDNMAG
T4 sequence (P23458 whole entry): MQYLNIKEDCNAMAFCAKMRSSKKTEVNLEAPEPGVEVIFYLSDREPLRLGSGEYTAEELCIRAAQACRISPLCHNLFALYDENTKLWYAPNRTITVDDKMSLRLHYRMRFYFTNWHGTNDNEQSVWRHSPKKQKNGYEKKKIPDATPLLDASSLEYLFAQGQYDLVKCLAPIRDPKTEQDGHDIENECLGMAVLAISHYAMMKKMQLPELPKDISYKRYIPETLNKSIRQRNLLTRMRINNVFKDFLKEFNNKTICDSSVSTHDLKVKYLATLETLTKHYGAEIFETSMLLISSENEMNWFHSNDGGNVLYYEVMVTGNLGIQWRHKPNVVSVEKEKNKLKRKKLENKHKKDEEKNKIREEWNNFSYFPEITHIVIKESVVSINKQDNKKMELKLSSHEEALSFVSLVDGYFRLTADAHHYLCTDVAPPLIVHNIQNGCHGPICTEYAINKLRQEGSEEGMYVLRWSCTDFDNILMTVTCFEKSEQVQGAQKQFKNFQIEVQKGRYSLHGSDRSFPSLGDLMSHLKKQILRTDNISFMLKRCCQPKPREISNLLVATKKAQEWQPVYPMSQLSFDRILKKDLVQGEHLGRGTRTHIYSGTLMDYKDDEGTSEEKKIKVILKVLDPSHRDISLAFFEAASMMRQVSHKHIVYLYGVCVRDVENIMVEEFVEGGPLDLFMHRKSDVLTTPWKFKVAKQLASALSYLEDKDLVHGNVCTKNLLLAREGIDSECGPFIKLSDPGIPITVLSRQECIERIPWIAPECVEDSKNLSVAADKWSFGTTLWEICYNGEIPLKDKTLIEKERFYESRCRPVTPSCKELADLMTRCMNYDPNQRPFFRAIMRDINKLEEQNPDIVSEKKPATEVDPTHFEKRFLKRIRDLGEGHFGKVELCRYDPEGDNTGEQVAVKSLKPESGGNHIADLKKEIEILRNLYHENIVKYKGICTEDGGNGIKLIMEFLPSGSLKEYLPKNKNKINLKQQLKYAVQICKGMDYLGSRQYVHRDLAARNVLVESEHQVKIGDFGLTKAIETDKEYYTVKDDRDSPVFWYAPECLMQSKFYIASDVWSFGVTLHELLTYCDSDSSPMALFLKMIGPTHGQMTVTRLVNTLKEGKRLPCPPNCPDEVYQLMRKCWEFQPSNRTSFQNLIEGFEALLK

In general, IC50 refers to the concentration at which inhibition is half-maximal. Regarding `O=C(NCC(O)C(F)(F)F)c1noc2c1CN(c1ncnc3[nH]ccc13)CC2` (stereo not drawn) [Compound 190], the 50% inhibitory concentration (IC50) was less than 100 nM in assay [1]; 100 to 500 nM in assay [2]; less than 100 nM in assay [3]; less than 100 nM in assay [4]; less than 0.5 µM in assay [5] (HuT78, compound 2 hours at 37° C., then IL-2 100 ng/mL 10 min, HTRF, read-out: Hut-78 cells IC50).
Consider `O=C(NCC(F)(F)F)c1noc2c1CN(c1ncnc3[nH]ccc13)CC2` [Compound 178], for which the IC50 was less than 100 nM in assay [1]; 500 to 2000 nM in assay [2]; less than 100 nM in assay [3]; less than 100 nM in assay [4]; 0.5 to 1 µM in assay [5] (HuT78, read-out: Hut-78 cells IC50 (μM)).
`O=C(NCCC1(O)CC(F)(F)C1)c1noc2c1CN(c1ncnc3[nH]ccc13)CC2` [Compound 149]: the IC50 in assay [1] was 500 to 2000 nM; in assay [2], greater than 2000 nM; in assay [3], 100 to 500 nM; in assay [4] it was 500 to 2000 nM.
For the compound `C=CCn1nc(C(=O)NCCC(F)(F)F)c2c1CCN(c1ncnc3[nH]ccc13)C2` [Compound 113], the IC50 in assay [1] was 100 to 500 nM; in assay [2], 500 to 2000 nM; in assay [3], less than 100 nM; in assay [4] it was 100 to 500 nM.
In the case of `CN1CCCC1CCNC(=O)c1noc2c1CN(c1ncnc3[nH]ccc13)CC2` (stereo not drawn) [Compound 155], the IC50 in assay [1] was 500 to 2000 nM; in assay [2], greater than 2000 nM; in assay [3], 500 to 2000 nM; in assay [4], 500 to 2000 nM.
As for `O=C(NCCC(F)(F)F)c1nn(C2CCOCC2)c2c1CN(c1ncnc3[nH]ccc13)CC2` [Compound 118], the IC50 is greater than 2000 nM in assay [1], greater than 2000 nM in assay [2], 100 to 500 nM in assay [3] and 500 to 2000 nM in assay [4].
Consider `O=C(NCCC(F)(F)F)c1nn(CCCc2ccccn2)c2c1CN(c1ncnc3[nH]ccc13)CC2` [Compound 108], for which the IC50 in assay [1] was greater than 2000 nM; in assay [2], greater than 2000 nM; in assay [3] it was 100 to 500 nM; in assay [4], greater than 2000 nM.
Take `O=C(NCCC(F)(F)F)c1nn(CCCCc2ccccc2)c2c1CN(c1ncnc3[nH]ccc13)CC2` [Compound 116]: the IC50 in assay [1] is greater than 2000 nM; in assay [2] it was greater than 2000 nM; in assay [3] it was 100 to 500 nM; in assay [4] it was 100 to 500 nM.
With `O=C(NCCCC(F)(F)F)c1noc2c1CN(c1ncnc3[nH]ccc13)CC2` [Compound 154], the IC50 in assay [1] was 100 to 500 nM; in assay [2], greater than 2000 nM; in assay [3] it was less than 100 nM; in assay [4], 100 to 500 nM.
As to `O=C(NCCC(F)(F)F)c1nn(C2CCNCC2)c2c1CN(c1ncnc3[nH]ccc13)CC2` [Compound 101], the IC50 was greater than 2000 nM in assay [1], greater than 2000 nM in assay [2], 500 to 2000 nM in assay [3] and greater than 2000 nM in assay [4].
As to `O=C(NCCC1CC(F)(F)C1)c1noc2c1CN(c1ncnc3[nH]ccc13)CC2` [Compound 148], the IC50 in assay [1] is 500 to 2000 nM; in assay [2] it was greater than 2000 nM; in assay [3], 100 to 500 nM; in assay [4], 100 to 500 nM.
`O=C(NCCc1ccccn1)c1noc2c1CN(c1ncnc3[nH]ccc13)CC2` [Compound 153]: the IC50 was 500 to 2000 nM in assay [1], greater than 2000 nM in assay [2], 100 to 500 nM in assay [3] and 500 to 2000 nM in assay [4].
In the case of `CCS(=O)(=O)NC(=O)[C@H]1C[C@H](NC(=O)c2nn(C)c3c2CN(c2ncnc4[nH]ccc24)CC3)C1` [Compound 126], the IC50 was 500 to 2000 nM in assay [1], greater than 2000 nM in assay [2], 100 to 500 nM in assay [3] and 100 to 500 nM in assay [4].
`FC(F)(F)CCNCc1n[nH]c2c1CN(c1ncnc3[nH]ccc13)CC2` [Compound 131]: the IC50 is 100 to 500 nM in assay [1], 100 to 500 nM in assay [2], less than 100 nM in assay [3] and 100 to 500 nM in assay [4].
In the case of `O=C(NCCC(F)(F)F)c1nn(CCCc2ccccc2)c2c1CN(c1ncnc3[nH]ccc13)CC2` [Compound 115], the IC50 was greater than 2000 nM in assay [1], greater than 2000 nM in assay [2], 100 to 500 nM in assay [3] and 500 to 2000 nM in assay [4].
Take `CCCS(=O)(=O)NC(=O)[C@H]1C[C@H](NC(=O)c2nn(C)c3c2CN(c2ncnc4[nH]ccc24)CC3)C1` [Compound 127]: the IC50 is 500 to 2000 nM in assay [1], greater than 2000 nM in assay [2], 100 to 500 nM in assay [3] and 100 to 500 nM in assay [4].
For `O=C(NCCS(=O)(=O)N1CCC1)c1noc2c1CN(c1ncnc3[nH]ccc13)CC2` [Compound 134], the IC50 in assay [1] is 500 to 2000 nM; in assay [2] it was greater than 2000 nM; in assay [3] it was 100 to 500 nM; in assay [4], 500 to 2000 nM.
For the compound `Cn1nc(C(=O)NCCC(F)(F)F)c2c1CCN(c1ncnc3[nH]ccc13)C2` [Compound 107], the IC50 is 100 to 500 nM in assay [1], 500 to 2000 nM in assay [2], less than 100 nM in assay [3] and less than 100 nM in assay [4].
For the compound `O=C(NCC1CC1)c1noc2c1CN(c1ncnc3[nH]ccc13)CC2` [Compound 180], the IC50 in assay [1] was 100 to 500 nM; in assay [2], greater than 2000 nM; in assay [3], less than 100 nM; in assay [4], 100 to 500 nM.
